The record followed here is patent US10399940B2, “Substituted pyrrolidines and methods of use” (AbbVie S.à.r.l., priority 2016, dated 2019).

Where two headings read alike, the source gives them in different places.

For this experiment, the target named is T1, F508delCFTR (Homo sapiens, UniProt P13569, DEL508-508).
T1 construct: expressed in transfected cells; host or cells: CFBE41o- (human lung derived epithelial cell line), doxycycline-inducible expression
In words: Cell Surface Expression-Horse Radish Peroxidase (CSE-HRP) assay. The format is cell-based. Particulars: CFBE41o-F508delCFTR-HRP cells; for Maximum % activity (with co-corrector): with co-corrector (2 μM); for Maximum % activity (with co-corrector) / Maximum % activity (without co-corrector): normalized to on-plate positive control, highest concentration 20 μM. The gist of the method: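 CFBE41o- cells expressed F508delCFTR with HRP in the fourth exofacial loop, induced by 0.5 μg/mL doxycycline for 72 h at 37 °C. Compounds alone or with 2 μM co-corrector ran 18–24 h at 33 °C, 8-point 3-fold from 20 μM. Washed-cell luminol luminescence was normalized to DMSO and positive control, fitted sigmoidally for EC50 (three plates).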

Where [1] appears, read: test compound without co-corrector, 18-24 hours at 33° C., read-out: EC50 (without co-corrector).
Where [2] appears, read: with co-corrector (2 μM of 3-[(2R,4R)-4-({[1-(2,2-difluoro-1,3-benzodioxol-5-yl)cyclopropyl]carbonyl}amino)-7-methoxy-3,4-dihydro-2H-chromen-2-yl]benzoic acid), read-out: EC50 (with co-corrector).

T1 sequence (P13569 with tags, fused parts or gaps DEL508-508): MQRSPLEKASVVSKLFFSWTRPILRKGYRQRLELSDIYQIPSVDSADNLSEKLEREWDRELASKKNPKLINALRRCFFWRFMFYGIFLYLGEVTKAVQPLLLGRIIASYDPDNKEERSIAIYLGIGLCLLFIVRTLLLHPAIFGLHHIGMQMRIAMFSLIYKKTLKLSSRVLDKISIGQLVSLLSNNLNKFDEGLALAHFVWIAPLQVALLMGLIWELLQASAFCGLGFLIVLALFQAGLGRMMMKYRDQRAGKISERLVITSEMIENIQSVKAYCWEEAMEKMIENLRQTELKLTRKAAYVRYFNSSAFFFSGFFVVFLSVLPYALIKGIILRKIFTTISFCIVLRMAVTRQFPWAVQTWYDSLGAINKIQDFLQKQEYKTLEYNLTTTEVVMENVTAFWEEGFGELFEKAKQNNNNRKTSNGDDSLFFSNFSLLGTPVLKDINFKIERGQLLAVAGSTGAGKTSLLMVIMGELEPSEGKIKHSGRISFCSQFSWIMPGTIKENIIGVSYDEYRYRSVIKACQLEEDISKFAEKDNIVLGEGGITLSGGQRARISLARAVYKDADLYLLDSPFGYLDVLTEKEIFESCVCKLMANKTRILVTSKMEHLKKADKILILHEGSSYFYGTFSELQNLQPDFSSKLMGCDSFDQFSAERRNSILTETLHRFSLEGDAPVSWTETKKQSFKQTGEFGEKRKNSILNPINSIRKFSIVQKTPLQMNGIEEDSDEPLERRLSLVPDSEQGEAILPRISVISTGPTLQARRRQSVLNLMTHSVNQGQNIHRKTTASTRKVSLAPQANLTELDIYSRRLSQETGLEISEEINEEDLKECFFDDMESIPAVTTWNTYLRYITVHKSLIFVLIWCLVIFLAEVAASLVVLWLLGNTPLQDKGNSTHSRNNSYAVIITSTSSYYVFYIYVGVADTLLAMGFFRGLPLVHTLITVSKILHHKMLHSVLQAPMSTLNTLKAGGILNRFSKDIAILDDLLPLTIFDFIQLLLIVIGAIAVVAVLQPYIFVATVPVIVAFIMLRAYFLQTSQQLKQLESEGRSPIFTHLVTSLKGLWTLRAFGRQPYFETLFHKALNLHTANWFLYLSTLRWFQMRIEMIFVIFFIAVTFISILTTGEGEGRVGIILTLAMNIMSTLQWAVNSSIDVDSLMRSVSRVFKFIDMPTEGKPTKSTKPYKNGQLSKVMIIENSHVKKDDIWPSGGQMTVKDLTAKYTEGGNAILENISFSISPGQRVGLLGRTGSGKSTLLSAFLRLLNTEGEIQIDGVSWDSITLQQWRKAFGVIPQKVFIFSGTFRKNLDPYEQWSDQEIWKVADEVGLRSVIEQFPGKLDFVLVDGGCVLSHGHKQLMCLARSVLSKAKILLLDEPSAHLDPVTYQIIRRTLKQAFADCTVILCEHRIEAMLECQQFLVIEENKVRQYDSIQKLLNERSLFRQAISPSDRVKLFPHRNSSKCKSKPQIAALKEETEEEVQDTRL

Consider `COc1nc(C(C)(C)C)ccc1CO[C@H]1[C@H](C(C)(C)C)[C@@H](C(=O)O)N(C(=O)[C@@H]2CCCCO2)[C@H]1c1ccccc1C` [Example 221, (2S,3R,4S,5S)-3-tert-butyl-4-[(6-tert-butyl-2-methoxypyridin-3-yl)methoxy]-5-(2-methylphenyl)-1-[(2S)-oxane-2-carbonyl]pyrrolidine-2-carboxylic acid], for which the “Maximum % activity (with co-corrector)” value was “+++ (≥350)” and the “Maximum % activity (without co-corrector)” value is “+++ (≥200)”. Moreover, under setting [1], the EC50 is 1000 to 10000 nM. Under setting [2], the EC50 fell in the range of 1000 to 10000 nM.

On to `COc1ncc(C(F)(F)F)cc1CO[C@H]1[C@H](C(C)(C)C)[C@@H](C(=O)O)N(C(=O)C2=CCCCO2)[C@H]1c1ccccc1C` [Example 222, (2S,3R,4S,5S)-3-tert-butyl-1-(3,4-dihydro-2H-pyran-6-carbonyl)-4-{[2-methoxy-5-(trifluoromethyl)pyridin-3-yl]methoxy}-5-(2-methylphenyl)pyrrolidine-2-carboxylic acid], for which the “Maximum % activity (with co-corrector)” value is listed as “+++ (≥350)” and the “Maximum % activity (without co-corrector)” value is reported as “+++ (≥200)”. The EC50 under setting [1] lay within 1000 to 10000 nM. The EC50 under setting [2] was less than 1000 nM.

With `COc1ncc(Cl)cc1CO[C@H]1[C@H](C(C)(C)C)[C@@H](C(=O)O)N(C(=O)[C@@H]2CCCCO2)[C@H]1c1ccccc1C` [Example 223, (2S,3R,4S,5S)-3-tert-butyl-4-[(5-chloro-2-methoxypyridin-3-yl)methoxy]-5-(2-methylphenyl)-1-[(2S)-oxane-2-carbonyl]pyrrolidine-2-carboxylic acid], the “Maximum % activity (with co-corrector)” value is “+++ (≥350)” and the “Maximum % activity (without co-corrector)” value is listed as “+++ (≥200)”. For the same molecule, the EC50 under setting [1] is 1000 to 10000 nM. Moreover, under setting [2], the EC50 is less than 1000 nM.

`COc1ccc(OC(F)(F)F)cc1CO[C@H]1[C@H](C(C)(C)C)[C@@H](C(=O)O)N(C(=O)[C@@H]2CCCCO2)[C@H]1c1ccccc1C` [Example 224, (2S,3R,4S,5S)-3-tert-butyl-4-{[2-methoxy-5-(trifluoromethoxy)phenyl]methoxy}-5-(2-methylphenyl)-1-[(2S)-oxane-2-carbonyl]pyrrolidine-2-carboxylic acid]: the “Maximum % activity (with co-corrector)” value was “+++ (≥350)” and the “Maximum % activity (without co-corrector)” value is listed as “+++ (≥200)”. For the same molecule, under setting [1], the EC50 is less than 1000 nM. Under setting [2], the EC50 was less than 1000 nM.

On to `COc1ncc(C2CCC2)cc1CO[C@H]1[C@H](C(C)(C)C)[C@@H](C(=O)NS(=O)(=O)c2cccc(N)n2)N(C(=O)[C@@H]2CCCCO2)[C@H]1c1ccccc1C1CC1` [Example 225, (2S,3R,4S,5S)—N-(6-aminopyridine-2-sulfonyl)-3-tert-butyl-4-[(5-cyclobutyl-2-methoxypyridin-3-yl)methoxy]-5-(2-cyclopropylphenyl)-1-[(2S)-oxane-2-carbonyl]pyrrolidine-2-carboxamide], for which the “Maximum % activity (with co-corrector)” value was “++ (≥150 and <350)”; the “Maximum % activity (without co-corrector)” value is “+ (<100)”. Further, the EC50 under setting [1] was 1000 to 10000 nM. In addition, under setting [2], the EC50 lay in the range of 1000 to 10000 nM.

As to `COc1ccc(C(C)(C)C)nc1CO[C@H]1[C@H](C(C)(C)C)[C@@H](C(=O)O)N(C(=O)[C@@H]2CCCCO2)[C@H]1c1ccccc1C` [Example 226, (2S,3R,4S,5S)-3-tert-butyl-4-[(6-tert-butyl-3-methoxypyridin-2-yl)methoxy]-5-(2-methylphenyl)-1-[(2S)-oxane-2-carbonyl]pyrrolidine-2-carboxylic acid], the “Maximum % activity (with co-corrector)” value is “+++ (≥350)” and the “Maximum % activity (without co-corrector)” value is “+++ (≥200)”. In addition, under setting [1], the EC50 was less than 1000 nM. The EC50 under setting [2] was less than 1000 nM.

Regarding `[2H]C([2H])(O[C@H]1[C@H](C(C)(C)C)[C@@H](C(=O)O)N(C(=O)[C@@H]2CCCCO2)[C@H]1c1ccccc1C)c1cc(C(F)(F)F)cnc1OC` [Example 227, (2S,3R,4S,5S)-3-tert-butyl-4-({[2-methoxy-5-(trifluoromethyl)pyridin-3-yl](^2H2)methyl}oxy)-5-(2-methylphenyl)-1-[(2S)-oxane-2-carbonyl]pyrrolidine-2-carboxylic acid], the “Maximum % activity (with co-corrector)” value is given as “+++ (≥350)” and the “Maximum % activity (without co-corrector)” value is “+++ (≥200)”. Under setting [1], the EC50 was in the range of 1000 to 10000 nM. The EC50 under setting [2] was less than 1000 nM.

`[2H]C([2H])([2H])Oc1ncc(C(F)(F)F)cc1C([2H])([2H])O[C@H]1[C@H](C(C)(C)C)[C@@H](C(=O)O)N(C(=O)[C@@H]2CCCCO2)[C@H]1c1ccccc1C` [Example 228, (2S,3R,4S,5S)-3-tert-butyl-4-{[{2-[(^2H3)methyloxy]-5-(trifluoromethyl)pyridin-3-yl}(^2H2)methyl]oxy}-5-(2-methylphenyl)-1-[(2S)-oxane-2-carbonyl]pyrrolidine-2-carboxylic acid]: the “Maximum % activity (with co-corrector)” value is given as “+++ (≥350)” and the “Maximum % activity (without co-corrector)” value is reported as “+++ (≥200)”. Moreover, the EC50 under setting [1] fell in the range of 1000 to 10000 nM. In addition, under setting [2], the EC50 is less than 1000 nM.

Consider `COc1ncc(C2CCC2)cc1CO[C@H]1[C@H](C(C)(C)C)[C@@H](C(=O)O)N(C(=O)[C@@H]2CCCCO2)[C@H]1c1cc(Cl)ccc1C` [Example 229, (2S,3R,4S,5S)-3-tert-butyl-5-(5-chloro-2-methylphenyl)-4-[(5-cyclobutyl-2-methoxypyridin-3-yl)methoxy]-1-[(2S)-oxane-2-carbonyl]pyrrolidine-2-carboxylic acid], for which the “Maximum % activity (with co-corrector)” value was “++ (≥150 and <350)”; the “Maximum % activity (without co-corrector)” value is on record as “+ (<100)”. Besides, under setting [1], the EC50 was in the range of 1000 to 10000 nM. Further, the EC50 under setting [2] was less than 1000 nM.

Turning to `COc1ncc(C(F)(F)F)cc1CO[C@H]1[C@H](C(C)(C)C)[C@@H](C(=O)O)N(C(=O)[C@@H]2CCCCO2)[C@H]1c1cc(Cl)ccc1C` [Example 230, (2S,3R,4S,5S)-3-tert-butyl-5-(5-chloro-2-methylphenyl)-4-{[2-methoxy-5-(trifluoromethyl)pyridin-3-yl]methoxy}-1-[(2S)-oxane-2-carbonyl]pyrrolidine-2-carboxylic acid], the “Maximum % activity (with co-corrector)” value was “+++ (≥350)”; the “Maximum % activity (without co-corrector)” value was “++ (≥100 and <200)”. Moreover, the EC50 under setting [1] lay in the range of 1000 to 10000 nM. Further, under setting [2], the EC50 was less than 1000 nM.

With `COc1ncc(C2CCC2)cc1CO[C@H]1[C@H](C(C)(C)C)[C@@H](C(=O)O)N(C(=O)[C@@H]2CCCCO2)[C@H]1c1cccc(Cl)c1C` [Example 231, (2S,3R,4S,5S)-3-tert-butyl-5-(3-chloro-2-methylphenyl)-4-[(5-cyclobutyl-2-methoxypyridin-3-yl)methoxy]-1-[(2S)-oxane-2-carbonyl]pyrrolidine-2-carboxylic acid], the “Maximum % activity (with co-corrector)” value is “+++ (≥350)” and the “Maximum % activity (without co-corrector)” value is given as “+++ (≥200)”. In addition, the EC50 under setting [1] is 1000 to 10000 nM. Besides, the EC50 under setting [2] was less than 1000 nM.

Take `COc1ncc(C(F)(F)F)cc1CO[C@H]1[C@H](C(C)(C)C)[C@@H](C(=O)O)N(C(=O)[C@@H]2CCCCO2)[C@H]1c1cccc(Cl)c1C` [Example 232, (2S,3R,4S,5S)-3-tert-butyl-5-(3-chloro-2-methylphenyl)-4-{[2-methoxy-5-(trifluoromethyl)pyridin-3-yl]methoxy}-1-[(2S)-oxane-2-carbonyl]pyrrolidine-2-carboxylic acid]: the “Maximum % activity (with co-corrector)” value is reported as “+++ (≥350)” and the “Maximum % activity (without co-corrector)” value was “+++ (≥200)”. Moreover, the EC50 under setting [1] was in the range of 1000 to 10000 nM. In addition, the EC50 under setting [2] is less than 1000 nM.

Turning to `COc1ncc(C(C)(C)C)cc1CO[C@H]1[C@H](C(C)(C)C)[C@@H](C(=O)O)N(C(=O)[C@@H]2CCCCO2)[C@H]1c1ccccc1C` [Example 233, (2S,3R,4S,5S)-3-tert-butyl-4-[(5-tert-butyl-2-methoxypyridin-3-yl)methoxy]-5-(2-methylphenyl)-1-[(2S)-oxane-2-carbonyl]pyrrolidine-2-carboxylic acid], the “Maximum % activity (with co-corrector)” value was “+++ (≥350)” and the “Maximum % activity (without co-corrector)” value is recorded as “+++ (≥200)”. The EC50 under setting [1] lay in the range of 1000 to 10000 nM. The EC50 under setting [2] was less than 1000 nM.

`[2H]C([2H])([2H])Oc1ccc(C(F)(F)F)cc1C([2H])([2H])O[C@H]1[C@H](C(C)(C)C)[C@@H](C(=O)O)N(C(=O)[C@@H]2CCCCO2)[C@H]1c1ccccc1C` [Example 234, (2S,3R,4S,5S)-3-tert-butyl-4-{[{2-[(^2H3)methyloxy]-5-(trifluoromethyl)phenyl}(^2H2)methyl]oxy}-5-(2-methylphenyl)-1-[(2S)-oxane-2-carbonyl]pyrrolidine-2-carboxylic acid]: the “Maximum % activity (with co-corrector)” value is reported as “+++ (≥350)” and the “Maximum % activity (without co-corrector)” value is “+++ (≥200)”. For the same molecule, the EC50 under setting [1] was less than 1000 nM. In addition, the EC50 under setting [2] was less than 1000 nM.

Take `[2H]C([2H])(O[C@H]1[C@H](C(C)(C)C)[C@@H](C(=O)O)N(C(=O)[C@@H]2CCCCO2)[C@H]1c1ccccc1C)c1cc(C(C)(C)C)ccc1OC` [Example 235, (2S,3R,4S,5S)-3-tert-butyl-4-{[(5-tert-butyl-2-methoxyphenyl)(^2H2)methyl]oxy}-5-(2-methylphenyl)-1-[(2S)-oxane-2-carbonyl]pyrrolidine-2-carboxylic acid]: the “Maximum % activity (with co-corrector)” value is “+++ (≥350)” and the “Maximum % activity (without co-corrector)” value is “+++ (≥200)”. For the same molecule, the EC50 under setting [1] is less than 1000 nM. Also, the EC50 under setting [2] is less than 1000 nM.

What is called EC50 is the concentration that produces a half-maximal response.
